Test results from ChEMBL document CHEMBL3792292, “Development of a potent and selective FLT3 kinase inhibitor by systematic expansion of a non-selective fragment-screening hit” (Bioorg Med Chem Lett, 2016).

Experiments:
[1] = target: AMP-activated protein kinase, AMPK (Homo sapiens) (UniProt P54646+O43741+P54619+Q9UGJ0+Q9Y478+Q13131+Q9UGI9); assay: Inhibition of human N-terminal GST-tagged AMPKalpha1 (1 to 550 residues)/beta1 (1 to 270 residues)/gamma1 (1 to 331 residues) expressed in baculovirus expression system using fluorescence labelled SAMS peptide substrate at 50 times IC50 by electrophoretic mobility shift assay relative to control
[2] = target: Dual specificity tyrosine-phosphorylation-regulated kinase 1B (Homo sapiens) (UniProt Q9Y463); assay: Inhibition of full length human N-terminal GST-tagged DYRK1B (1 to 629 residues) expressed in baculovirus expression system using fluorescence labelled DYRKtide-F as substrate at 50 times IC50 by electrophoretic mobility shift assay relative to control
[3] = target: Tyrosine-protein kinase SYK (Homo sapiens) (UniProt P43405); assay: Inhibition of full length human N-terminal GST-tagged SYK (1 to 635 residues) expressed in baculovirus expression system using fluorescence labelled Blk/Lyntide as substrate at 50 times IC50 by electrophoretic mobility shift assay relative to control
[4] = target: Tyrosine-protein kinase Lck (Homo sapiens) (UniProt P06239); assay: Inhibition of full length human N-terminal GST-tagged LCK (1 to 500 residues) expressed in baculovirus expression system using fluorescence labelled srctide as substrate at 50 times IC50 by electrophoretic mobility shift assay relative to control
[5] = target: RAC-alpha serine/threonine-protein kinase (Homo sapiens) (UniProt P31749); assay: Inhibition of human N-terminal GST-tagged AKT1 catalytic domain (104 to 480 residues) expressed in baculovirus expression system using fluorescence labelled crosstide as substrate at 50 times IC50 by electrophoretic mobility shift assay relative to control
[6] = target: Serine/threonine-protein kinase pim-1 (Homo sapiens) (UniProt P11309); assay: Inhibition of full length human N-terminal His-tagged PIM1 (1 to 313 residues) expressed in baculovirus expression system using fluorescence labelled S6K2 peptide substrate at 50 times IC50 by electrophoretic mobility shift assay relative to control
[7] = target: T1, Receptor-type tyrosine-protein kinase FLT3 (Homo sapiens, UniProt P36888); assay: Inhibition of human N-terminal GST-tagged FLT3 cytoplasmic domain (564 to 993 residues) expressed in baculovirus expression system using 5-FAM-peptide 2 as substrate after 2 hrs by electrophoretic mobility shift assay in presence of ATP
T1 sequence (P36888 whole entry): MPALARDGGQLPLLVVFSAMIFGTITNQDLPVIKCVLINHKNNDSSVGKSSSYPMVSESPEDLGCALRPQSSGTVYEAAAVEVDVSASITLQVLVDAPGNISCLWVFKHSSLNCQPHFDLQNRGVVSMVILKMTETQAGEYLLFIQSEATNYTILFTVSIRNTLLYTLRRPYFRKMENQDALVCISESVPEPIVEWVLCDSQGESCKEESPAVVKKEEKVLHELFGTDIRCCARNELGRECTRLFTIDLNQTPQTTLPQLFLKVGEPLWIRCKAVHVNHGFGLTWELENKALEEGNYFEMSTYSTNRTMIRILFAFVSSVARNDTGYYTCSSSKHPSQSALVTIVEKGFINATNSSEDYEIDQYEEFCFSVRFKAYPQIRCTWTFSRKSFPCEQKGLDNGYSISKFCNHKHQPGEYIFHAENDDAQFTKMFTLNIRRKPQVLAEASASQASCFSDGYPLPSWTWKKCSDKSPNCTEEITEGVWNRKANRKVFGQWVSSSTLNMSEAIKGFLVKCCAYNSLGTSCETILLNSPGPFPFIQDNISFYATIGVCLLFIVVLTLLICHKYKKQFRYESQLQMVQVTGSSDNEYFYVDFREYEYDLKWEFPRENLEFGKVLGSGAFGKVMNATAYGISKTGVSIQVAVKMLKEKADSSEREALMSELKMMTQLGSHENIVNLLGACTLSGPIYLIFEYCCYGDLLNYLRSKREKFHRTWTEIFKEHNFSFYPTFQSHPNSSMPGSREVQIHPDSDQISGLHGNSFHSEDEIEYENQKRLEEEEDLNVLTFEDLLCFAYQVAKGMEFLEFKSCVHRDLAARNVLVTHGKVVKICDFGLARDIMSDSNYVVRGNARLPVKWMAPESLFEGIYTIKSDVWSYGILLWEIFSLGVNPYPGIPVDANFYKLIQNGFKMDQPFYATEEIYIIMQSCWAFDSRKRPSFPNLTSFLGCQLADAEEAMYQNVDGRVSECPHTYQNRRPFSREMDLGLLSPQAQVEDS

[8] = target: Ephrin type-A receptor 2 (Homo sapiens) (UniProt P29317); assay: Inhibition of human N-terminal GST-tagged EPHA2 cytoplasmic domain (572 to 976 residues) expressed in baculovirus expression system using fluorescence labelled Blk/Lyntide as substrate at 50 times IC50 by electrophoretic mobility shift assay relative to control
[9] = target: Casein kinase I isoform epsilon (Homo sapiens) (UniProt P49674); assay: Inhibition of human N-terminal GST-tagged CK1epsilon catalytic domain (1 to 348 residues) expressed in baculovirus expression system using fluorescence labelled CKtide as substrate at 50 times IC50 by electrophoretic mobility shift assay relative to control
[10] = target: Protein kinase C alpha type (Homo sapiens) (UniProt P17252); assay: Inhibition of full length human N-terminal GST-tagged PKCalpha (1 to 672 residues) expressed in baculovirus expression system using fluorescence labelled PKC peptide substrate at 50 times IC50 by electrophoretic mobility shift assay relative to control
[11] = target: T1, Receptor-type tyrosine-protein kinase FLT3; assay: Inhibition of human N-terminal GST-tagged FLT3 cytoplasmic domain (564 to 993 residues) expressed in baculovirus expression system using fluorescence labelled srctide as substrate by mobility shift assay in presence of ATP
[12] = target: Angiopoietin-1 receptor (Homo sapiens) (UniProt Q02763); assay: Inhibition of human N-terminal GST-tagged TIE2 receptor cytoplasmic domain (771 to 1124 residues) expressed in baculovirus expression system using fluorescence labelled Blk/Lyntide as substrate at 50 times IC50 by electrophoretic mobility shift assay relative to control
[13] = target: Epidermal growth factor receptor (Homo sapiens) (UniProt P00533); assay: Inhibition of human N-terminal GST-tagged EGFR cytoplasmic domain (669 to 1210 residues) expressed in baculovirus expression system using fluorescence labelled srctide as substrate at 50 times IC50 by electrophoretic mobility shift assay relative to control
[14] = target: Rho-associated protein kinase 1 (Homo sapiens) (UniProt Q13464); assay: Inhibition of human N-terminal GST-tagged ROCK1 catalytic domain (1 to 477 residues) expressed in baculovirus expression system using fluorescence labelled LIMKtide substrate at 50 times IC50 by electrophoretic mobility shift assay relative to control
[15] = target: Glycogen synthase kinase-3 beta (Homo sapiens) (UniProt P49841); assay: Inhibition of full length human N-terminal GST-tagged GSK3beta (1 to 420 residues) expressed in baculovirus expression system using fluorescence labelled CREBtide-p as substrate at 50 times IC50 by electrophoretic mobility shift assay relative to control

| SMILES | inhibition [1] [%] | inhibition [2] [%] | inhibition [3] [%] | inhibition [4] [%] | inhibition [5] [%] | inhibition [6] [%] | IC50 [7] [nM] | inhibition [8] [%] | inhibition [9] [%] | inhibition [10] [%] | IC50 [11] [nM] | inhibition [12] [%] | inhibition [13] [%] | inhibition [14] [%] | inhibition [15] [%] |
| --- | --- | --- | --- | --- | --- | --- | --- | --- | --- | --- | --- | --- | --- | --- | --- |
| O=C(Nc1ccccc1)c1n[nH]c2ccccc12 | 46 | 53.6 | 73.5 | 5.6 | -2.4 | 3.1 | 417 | 0.6 | 51.3 | 2.4 | 350 | 3 | 9.1 | 3.3 | 51 |
| O=C(Nc1ccc(C(=O)N2CCN(c3ccccc3)CC2)cc1)c1n[nH]c2ccccc12 | 18 | 29.4 | 40.2 | 1.8 | -1.1 | 3 | 34 | -1.6 | 21.3 | 10.6 | 23 | -2 | 0.1 | 6.9 | 4.9 |
| O=C(Nc1ccc(CN2CCN(c3ccccc3)CC2)cc1)c1n[nH]c2ccccc12 | 9.2 | 12.7 | 29.7 | 1.8 | -3.3 | 6 | 10 | 0.9 | 19.3 | -0.9 | 9 | -2.5 | 1.7 | 1.9 | -3.7 |
